Source: ChEMBL document CHEMBL3991601, “The target landscape of clinical kinase drugs” (Science, 2017)
The source made the active and inactive calls. For most assays here, no stated cut-off is given here; in the data, actives have a measured Kd and inactives only a lower limit.

What was measured:
[1] = biological target: Cyclin-dependent kinase 1 (Homo sapiens, UniProt P06493)
Ephrin type-B receptor 6 = biological target: T1, Ephrin type-B receptor 6 (Homo sapiens, UniProt O15197)
T1 sequence (O15197 whole entry): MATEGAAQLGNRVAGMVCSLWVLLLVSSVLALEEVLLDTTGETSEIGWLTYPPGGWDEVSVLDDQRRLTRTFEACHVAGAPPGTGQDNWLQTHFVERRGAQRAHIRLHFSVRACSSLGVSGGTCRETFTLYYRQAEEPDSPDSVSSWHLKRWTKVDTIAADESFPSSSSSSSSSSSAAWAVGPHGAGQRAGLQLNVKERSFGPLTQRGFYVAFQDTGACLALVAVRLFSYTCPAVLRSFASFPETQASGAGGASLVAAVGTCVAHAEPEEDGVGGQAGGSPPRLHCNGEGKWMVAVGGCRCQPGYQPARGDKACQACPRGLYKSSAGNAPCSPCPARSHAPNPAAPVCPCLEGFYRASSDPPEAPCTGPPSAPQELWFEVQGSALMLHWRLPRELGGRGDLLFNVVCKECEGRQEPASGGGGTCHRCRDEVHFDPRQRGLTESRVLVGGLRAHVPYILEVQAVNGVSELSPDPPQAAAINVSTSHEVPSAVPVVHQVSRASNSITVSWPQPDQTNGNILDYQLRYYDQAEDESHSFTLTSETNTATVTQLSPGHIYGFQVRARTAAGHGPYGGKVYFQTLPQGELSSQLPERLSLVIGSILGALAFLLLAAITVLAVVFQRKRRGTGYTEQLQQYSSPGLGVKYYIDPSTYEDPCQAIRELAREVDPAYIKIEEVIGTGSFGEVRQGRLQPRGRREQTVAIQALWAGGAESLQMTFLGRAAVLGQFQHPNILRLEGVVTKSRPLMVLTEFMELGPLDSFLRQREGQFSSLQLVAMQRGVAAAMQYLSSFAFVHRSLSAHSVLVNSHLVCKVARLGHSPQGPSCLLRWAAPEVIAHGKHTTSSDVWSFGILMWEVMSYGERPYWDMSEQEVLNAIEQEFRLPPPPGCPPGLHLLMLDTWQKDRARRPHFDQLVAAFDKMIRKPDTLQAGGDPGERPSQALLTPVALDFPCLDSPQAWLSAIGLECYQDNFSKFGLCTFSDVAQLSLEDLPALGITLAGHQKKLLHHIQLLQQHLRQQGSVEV

[2] = biological target: Tyrosine-protein kinase FRK (Homo sapiens, UniProt P42685)
[3] = biological target: T2, Dual specificity mitogen-activated protein kinase kinase 6 (Homo sapiens, UniProt P52564)
T2 sequence (P52564 whole entry): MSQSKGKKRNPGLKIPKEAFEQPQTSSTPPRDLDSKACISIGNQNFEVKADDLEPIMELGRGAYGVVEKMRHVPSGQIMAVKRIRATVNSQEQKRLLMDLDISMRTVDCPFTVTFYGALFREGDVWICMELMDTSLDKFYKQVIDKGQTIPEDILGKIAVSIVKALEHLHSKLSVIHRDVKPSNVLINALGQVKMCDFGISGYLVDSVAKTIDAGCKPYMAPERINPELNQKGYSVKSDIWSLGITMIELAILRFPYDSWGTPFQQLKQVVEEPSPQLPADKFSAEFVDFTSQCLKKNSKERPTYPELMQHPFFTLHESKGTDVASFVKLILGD

[4] = biological target: Mitogen-activated protein kinase 8 (Homo sapiens, UniProt P45983)
[5] = biological target: T3, Serine/threonine-protein kinase Nek2 (Homo sapiens, UniProt P51955)
T3 sequence (P51955 whole entry): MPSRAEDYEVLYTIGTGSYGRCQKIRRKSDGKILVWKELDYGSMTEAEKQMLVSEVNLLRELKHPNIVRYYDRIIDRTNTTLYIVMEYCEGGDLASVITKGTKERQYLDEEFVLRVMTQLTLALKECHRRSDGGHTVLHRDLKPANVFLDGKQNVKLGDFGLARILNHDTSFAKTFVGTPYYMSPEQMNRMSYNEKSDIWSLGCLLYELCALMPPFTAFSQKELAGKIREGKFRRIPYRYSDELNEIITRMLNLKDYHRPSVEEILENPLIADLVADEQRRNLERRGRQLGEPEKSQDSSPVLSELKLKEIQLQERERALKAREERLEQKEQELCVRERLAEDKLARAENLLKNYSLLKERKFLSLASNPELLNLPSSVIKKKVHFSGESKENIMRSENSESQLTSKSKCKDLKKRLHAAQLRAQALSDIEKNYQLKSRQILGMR

[6] = biological target: Serine/threonine-protein kinase PAK 4 (Homo sapiens, UniProt O96013)
Rab-like protein 3 = biological target: T4, Rab-like protein 3 (Homo sapiens, UniProt Q5HYI8)
T4 sequence (Q5HYI8 whole entry): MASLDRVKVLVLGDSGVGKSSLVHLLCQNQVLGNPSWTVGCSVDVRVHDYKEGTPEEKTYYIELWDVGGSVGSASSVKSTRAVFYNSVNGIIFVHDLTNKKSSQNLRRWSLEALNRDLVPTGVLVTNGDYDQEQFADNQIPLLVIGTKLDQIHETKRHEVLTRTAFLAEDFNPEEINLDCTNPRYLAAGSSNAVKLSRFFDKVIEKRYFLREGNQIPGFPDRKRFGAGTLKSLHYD

[7] = biological target: U5 small nuclear ribonucleoprotein 200 kDa helicase (Homo sapiens, UniProt O75643)
[8] = biological target: TRAF2 and NCK-interacting protein kinase (Homo sapiens, UniProt Q9UKE5)
Wee1-like protein kinase = Wee1-like protein kinase (Homo sapiens, UniProt P30291)
[9] = biological target: Tyrosine-protein kinase Yes (Homo sapiens, UniProt P07947)

Cyclin-dependent kinase 1, sequence (P06493 whole entry): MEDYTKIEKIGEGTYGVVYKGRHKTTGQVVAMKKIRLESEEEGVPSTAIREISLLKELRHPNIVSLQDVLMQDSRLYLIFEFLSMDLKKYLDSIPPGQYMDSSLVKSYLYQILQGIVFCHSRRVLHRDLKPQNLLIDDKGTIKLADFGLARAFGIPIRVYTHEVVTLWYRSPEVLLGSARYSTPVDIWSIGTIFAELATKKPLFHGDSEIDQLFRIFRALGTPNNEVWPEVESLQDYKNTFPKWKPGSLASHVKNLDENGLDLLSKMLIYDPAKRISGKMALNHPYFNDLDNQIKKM
Serine/threonine-protein kinase PAK 4, sequence (O96013 whole entry): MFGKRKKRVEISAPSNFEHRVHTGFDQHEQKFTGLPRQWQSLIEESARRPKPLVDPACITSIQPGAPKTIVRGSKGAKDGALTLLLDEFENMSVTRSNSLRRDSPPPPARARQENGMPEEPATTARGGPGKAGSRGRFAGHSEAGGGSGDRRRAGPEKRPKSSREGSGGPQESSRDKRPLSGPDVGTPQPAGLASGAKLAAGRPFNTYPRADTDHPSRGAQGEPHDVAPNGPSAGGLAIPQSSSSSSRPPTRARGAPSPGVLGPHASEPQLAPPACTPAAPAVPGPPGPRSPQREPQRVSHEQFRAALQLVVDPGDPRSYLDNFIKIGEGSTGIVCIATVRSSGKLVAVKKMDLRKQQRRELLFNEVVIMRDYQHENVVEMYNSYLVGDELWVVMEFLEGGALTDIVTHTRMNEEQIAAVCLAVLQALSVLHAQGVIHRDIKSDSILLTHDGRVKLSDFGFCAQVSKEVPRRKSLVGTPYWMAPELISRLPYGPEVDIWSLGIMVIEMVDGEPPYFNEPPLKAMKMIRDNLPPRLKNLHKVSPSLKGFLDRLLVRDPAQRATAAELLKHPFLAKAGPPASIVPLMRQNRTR
TRAF2 and NCK-interacting protein kinase, sequence (Q9UKE5 whole entry): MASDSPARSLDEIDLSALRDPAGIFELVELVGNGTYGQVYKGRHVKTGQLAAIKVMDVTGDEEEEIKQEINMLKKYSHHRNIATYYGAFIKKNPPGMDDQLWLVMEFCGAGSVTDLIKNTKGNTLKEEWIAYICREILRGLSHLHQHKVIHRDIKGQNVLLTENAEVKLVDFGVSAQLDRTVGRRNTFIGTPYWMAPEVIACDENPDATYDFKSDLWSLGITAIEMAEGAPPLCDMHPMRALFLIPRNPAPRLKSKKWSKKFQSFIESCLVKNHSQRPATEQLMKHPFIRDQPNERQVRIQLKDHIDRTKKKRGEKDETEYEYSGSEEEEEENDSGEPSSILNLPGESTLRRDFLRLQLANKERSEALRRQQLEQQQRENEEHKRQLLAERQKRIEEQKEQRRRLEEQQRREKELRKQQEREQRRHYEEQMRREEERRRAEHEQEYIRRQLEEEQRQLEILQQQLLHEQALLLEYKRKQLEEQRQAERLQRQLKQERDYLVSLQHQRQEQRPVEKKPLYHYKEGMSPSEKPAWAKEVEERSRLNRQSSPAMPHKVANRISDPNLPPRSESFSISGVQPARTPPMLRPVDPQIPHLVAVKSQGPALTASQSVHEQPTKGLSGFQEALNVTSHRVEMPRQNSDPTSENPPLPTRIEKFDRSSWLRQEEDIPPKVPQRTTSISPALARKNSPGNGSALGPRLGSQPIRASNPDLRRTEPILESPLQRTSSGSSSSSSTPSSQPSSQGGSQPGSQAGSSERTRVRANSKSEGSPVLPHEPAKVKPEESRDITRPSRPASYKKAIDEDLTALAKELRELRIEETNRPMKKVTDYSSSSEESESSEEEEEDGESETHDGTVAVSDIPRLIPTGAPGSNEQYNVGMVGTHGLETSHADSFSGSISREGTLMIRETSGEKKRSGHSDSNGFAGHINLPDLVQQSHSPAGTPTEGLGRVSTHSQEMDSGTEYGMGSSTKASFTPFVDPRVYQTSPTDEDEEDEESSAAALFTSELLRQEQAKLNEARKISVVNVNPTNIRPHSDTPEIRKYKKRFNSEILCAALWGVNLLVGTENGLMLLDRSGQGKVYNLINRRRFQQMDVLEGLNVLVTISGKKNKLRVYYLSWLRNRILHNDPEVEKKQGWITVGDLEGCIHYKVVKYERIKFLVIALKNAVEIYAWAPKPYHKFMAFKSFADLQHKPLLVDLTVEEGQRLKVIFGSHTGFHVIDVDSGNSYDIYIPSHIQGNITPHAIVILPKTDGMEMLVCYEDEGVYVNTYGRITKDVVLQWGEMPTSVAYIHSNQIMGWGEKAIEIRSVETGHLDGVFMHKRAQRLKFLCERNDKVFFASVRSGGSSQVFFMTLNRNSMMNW
U5 small nuclear ribonucleoprotein 200 kDa helicase, sequence (O75643 whole entry): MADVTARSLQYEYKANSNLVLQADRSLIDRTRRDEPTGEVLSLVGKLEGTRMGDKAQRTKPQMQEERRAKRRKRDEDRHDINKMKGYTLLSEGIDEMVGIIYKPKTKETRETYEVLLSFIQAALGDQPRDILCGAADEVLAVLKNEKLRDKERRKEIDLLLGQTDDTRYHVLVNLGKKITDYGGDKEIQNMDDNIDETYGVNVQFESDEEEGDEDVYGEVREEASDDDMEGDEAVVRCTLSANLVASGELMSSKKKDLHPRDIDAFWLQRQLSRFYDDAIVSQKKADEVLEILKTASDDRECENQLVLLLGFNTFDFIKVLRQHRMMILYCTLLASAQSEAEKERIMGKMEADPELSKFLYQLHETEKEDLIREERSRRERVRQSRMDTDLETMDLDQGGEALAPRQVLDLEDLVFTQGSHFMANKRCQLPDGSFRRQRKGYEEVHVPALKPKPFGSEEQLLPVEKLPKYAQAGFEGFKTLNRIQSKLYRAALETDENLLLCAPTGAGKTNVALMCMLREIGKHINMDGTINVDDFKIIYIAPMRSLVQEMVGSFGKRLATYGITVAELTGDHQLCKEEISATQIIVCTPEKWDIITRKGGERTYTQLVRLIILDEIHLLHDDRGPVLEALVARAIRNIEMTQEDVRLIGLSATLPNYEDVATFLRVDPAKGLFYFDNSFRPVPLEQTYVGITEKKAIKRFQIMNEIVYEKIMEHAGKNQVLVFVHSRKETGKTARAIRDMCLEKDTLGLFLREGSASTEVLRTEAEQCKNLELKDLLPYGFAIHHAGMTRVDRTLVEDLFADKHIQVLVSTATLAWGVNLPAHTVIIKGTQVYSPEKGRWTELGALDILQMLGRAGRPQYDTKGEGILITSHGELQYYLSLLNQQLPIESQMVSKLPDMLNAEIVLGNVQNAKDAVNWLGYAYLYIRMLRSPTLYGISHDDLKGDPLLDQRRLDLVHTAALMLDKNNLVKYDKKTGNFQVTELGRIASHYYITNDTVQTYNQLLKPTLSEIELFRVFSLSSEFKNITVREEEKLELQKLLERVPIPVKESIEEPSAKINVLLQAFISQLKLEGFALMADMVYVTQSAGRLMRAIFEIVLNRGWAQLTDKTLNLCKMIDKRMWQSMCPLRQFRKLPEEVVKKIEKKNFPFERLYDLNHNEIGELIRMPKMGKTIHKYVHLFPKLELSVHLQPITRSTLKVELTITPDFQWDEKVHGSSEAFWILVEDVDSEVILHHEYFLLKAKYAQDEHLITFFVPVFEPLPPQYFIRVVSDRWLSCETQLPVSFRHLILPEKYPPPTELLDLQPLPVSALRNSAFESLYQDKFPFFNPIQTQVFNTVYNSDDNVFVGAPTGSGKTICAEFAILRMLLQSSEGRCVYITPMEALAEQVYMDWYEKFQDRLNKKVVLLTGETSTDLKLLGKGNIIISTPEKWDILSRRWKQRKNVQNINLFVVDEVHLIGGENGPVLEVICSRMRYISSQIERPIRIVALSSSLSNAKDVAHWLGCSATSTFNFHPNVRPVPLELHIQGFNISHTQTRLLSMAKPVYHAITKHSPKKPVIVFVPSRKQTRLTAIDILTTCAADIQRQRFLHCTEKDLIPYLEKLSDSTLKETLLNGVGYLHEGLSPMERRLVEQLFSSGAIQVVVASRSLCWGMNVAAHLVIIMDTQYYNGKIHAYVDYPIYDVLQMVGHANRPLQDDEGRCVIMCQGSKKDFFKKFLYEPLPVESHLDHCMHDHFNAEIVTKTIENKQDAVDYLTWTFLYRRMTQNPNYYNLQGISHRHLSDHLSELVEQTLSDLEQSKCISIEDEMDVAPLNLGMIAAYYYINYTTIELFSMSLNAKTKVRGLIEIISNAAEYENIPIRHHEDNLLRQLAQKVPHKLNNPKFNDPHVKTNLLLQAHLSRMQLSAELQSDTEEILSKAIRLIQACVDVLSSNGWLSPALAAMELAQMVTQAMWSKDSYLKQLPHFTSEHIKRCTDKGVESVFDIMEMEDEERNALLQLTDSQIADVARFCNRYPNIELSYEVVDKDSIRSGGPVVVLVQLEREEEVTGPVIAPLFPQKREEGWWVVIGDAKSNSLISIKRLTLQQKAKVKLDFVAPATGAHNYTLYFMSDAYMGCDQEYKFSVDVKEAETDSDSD
Wee1-like protein kinase, sequence (P30291 whole entry): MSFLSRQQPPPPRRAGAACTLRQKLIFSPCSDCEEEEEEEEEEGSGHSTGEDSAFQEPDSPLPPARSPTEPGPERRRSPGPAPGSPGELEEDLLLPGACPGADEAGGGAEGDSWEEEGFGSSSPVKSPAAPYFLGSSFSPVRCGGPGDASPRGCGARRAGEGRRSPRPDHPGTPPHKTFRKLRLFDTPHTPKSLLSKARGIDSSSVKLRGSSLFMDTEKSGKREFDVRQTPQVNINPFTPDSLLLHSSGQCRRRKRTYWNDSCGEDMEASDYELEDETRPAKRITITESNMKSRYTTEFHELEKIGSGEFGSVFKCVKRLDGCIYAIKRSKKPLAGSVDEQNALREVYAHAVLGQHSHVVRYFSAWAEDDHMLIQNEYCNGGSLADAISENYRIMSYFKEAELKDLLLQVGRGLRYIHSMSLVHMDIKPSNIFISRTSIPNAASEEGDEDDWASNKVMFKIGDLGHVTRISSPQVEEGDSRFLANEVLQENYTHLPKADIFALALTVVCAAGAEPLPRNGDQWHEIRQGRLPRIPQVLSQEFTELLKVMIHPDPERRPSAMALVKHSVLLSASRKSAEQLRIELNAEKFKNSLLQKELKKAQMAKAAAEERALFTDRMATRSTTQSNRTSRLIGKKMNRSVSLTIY

Compound | Kd [1] | Kd (Ephrin type-B receptor 6) | Kd [2] | Kd [3] | Kd [4] | Kd [5] | Kd [6] | Kd (Rab-like protein 3) | Kd [7] | Kd [8] | Kd (Wee1-like protein kinase) | Kd [9]
O=C(c1ccc(F)c(F)c1Nc1ccc(I)cc1F)N1CC(O)([C@@H]2CCCCN2)C1 [COBIMETINIB] | > 30 µM (inactive) | > 30 µM (inactive) | > 30 µM (inactive) | > 30 µM (inactive) | > 30 µM (inactive) | > 30 µM (inactive) | > 30 µM (inactive) | > 30 µM (inactive) | > 30 µM (inactive) | > 30 µM (inactive) | > 30 µM (inactive) | > 30 µM (inactive)
CNC(=O)c1ccc(C)c(-n2c(C)cc(OCc3ccc(F)cc3F)c(Br)c2=O)c1 [PH-797804] | > 30 µM (inactive) | > 30 µM (inactive) | > 30 µM (inactive) | > 30 µM (inactive) | > 30 µM (inactive) | > 30 µM (inactive) | > 30 µM (inactive) | > 30 µM (inactive) | > 30 µM (inactive) | > 30 µM (inactive) | > 30 µM (inactive) | > 30 µM (inactive)
CNC(=O)c1cc(Oc2ccc(NC(=O)Nc3ccc(Cl)c(C(F)(F)F)c3)c(F)c2)ccn1 [REGORAFENIB] | > 30 µM (inactive) | > 30 µM (inactive) | > 30 µM (inactive) | > 30 µM (inactive) | > 30 µM (inactive) | > 30 µM (inactive) | > 30 µM (inactive) | > 30 µM (inactive) | > 30 µM (inactive) | > 30 µM (inactive) | > 30 µM (inactive) | > 30 µM (inactive)
Cn1cc(-c2ccc(F)c(C(F)(F)F)c2)nc1C1CCN(c2ncnc3[nH]ncc23)CC1 [LY-2584702] | > 30 µM (inactive) | > 30 µM (inactive) | > 30 µM (inactive) | > 30 µM (inactive) | > 30 µM (inactive) | > 30 µM (inactive) | > 30 µM (inactive) | > 30 µM (inactive) | > 30 µM (inactive) | > 30 µM (inactive) | > 30 µM (inactive) | > 30 µM (inactive)
O=C1NC(=O)/C(=C/c2ccc3nccc(-c4ccncc4)c3c2)S1 [GSK-1059615] | > 30 µM (inactive) | > 30 µM (inactive) | > 30 µM (inactive) | > 30 µM (inactive) | > 30 µM (inactive) | > 30 µM (inactive) | > 30 µM (inactive) | > 30 µM (inactive) | > 30 µM (inactive) | > 30 µM (inactive) | > 30 µM (inactive) | > 30 µM (inactive)
CCS(=O)(=O)N1CC(CC#N)(n2cc(-c3ncnc4[nH]ccc34)cn2)C1 [BARICITINIB] | > 30 µM (inactive) | > 30 µM (inactive) | > 30 µM (inactive) | > 30 µM (inactive) | > 30 µM (inactive) | > 30 µM (inactive) | > 30 µM (inactive) | > 30 µM (inactive) | > 30 µM (inactive) | > 30 µM (inactive) | > 30 µM (inactive) | > 30 µM (inactive)
COc1cc(CCc2cc(NC(=O)c3ccc(N4C[C@@H](C)N[C@@H](C)C4)cc3)n[nH]2)cc(OC)c1 [AZD-4547] | > 30 µM (inactive) | > 30 µM (inactive) | > 30 µM (inactive) | > 30 µM (inactive) | > 30 µM (inactive) | > 30 µM (inactive) | > 30 µM (inactive) | > 30 µM (inactive) | > 30 µM (inactive) | 1.39 µM | > 30 µM (inactive) | > 30 µM (inactive)
COc1cc(OC)c(/C=C/S(=O)(=O)Cc2ccc(OC)c(NCC(=O)O)c2)c(OC)c1 [RIGOSERTIB] | > 30 µM (inactive) | > 30 µM (inactive) | > 30 µM (inactive) | > 30 µM (inactive) | > 30 µM (inactive) | > 30 µM (inactive) | > 30 µM (inactive) | > 30 µM (inactive) | > 30 µM (inactive) | > 30 µM (inactive) | > 30 µM (inactive) | > 30 µM (inactive)
CN1CCC(CNc2ccc3ncc(-c4cccc(OC(F)(F)F)c4)n3n2)CC1 [SGI-1776] | > 30 µM (inactive) | > 30 µM (inactive) | > 30 µM (inactive) | > 30 µM (inactive) | > 30 µM (inactive) | > 30 µM (inactive) | > 30 µM (inactive) | > 30 µM (inactive) | > 30 µM (inactive) | > 30 µM (inactive) | > 30 µM (inactive) | > 30 µM (inactive)

Further lines, results first:

Kd [1] | Kd (Ephrin type-B receptor 6) | Kd [2] | Kd [3] | Kd [4] | Kd [5] | Kd [6] | Kd (Rab-like protein 3) | Kd [7] | Kd [8] | Kd (Wee1-like protein kinase) | Kd [9] | Compound
> 30 µM (inactive) | > 30 µM (inactive) | > 30 µM (inactive) | > 30 µM (inactive) | > 30 µM (inactive) | > 30 µM (inactive) | > 30 µM (inactive) | > 30 µM (inactive) | > 30 µM (inactive) | > 30 µM (inactive) | > 30 µM (inactive) | > 30 µM (inactive) | Cc1ccc(S(=O)(=O)Nc2nc3ccccc3nc2Nc2ccc3nsnc3c2)cc1
> 30 µM (inactive) | > 30 µM (inactive) | > 30 µM (inactive) | > 30 µM (inactive) | > 30 µM (inactive) | > 30 µM (inactive) | > 30 µM (inactive) | > 30 µM (inactive) | > 30 µM (inactive) | > 30 µM (inactive) | > 30 µM (inactive) | > 30 µM (inactive) | N[C@@H]1CCCN(c2c(/C=C3\SC(=O)NC3=O)cccc2-c2ccccc2)C1
> 30 µM (inactive) | > 30 µM (inactive) | 0.428 µM (active) | > 30 µM (inactive) | > 30 µM (inactive) | > 30 µM (inactive) | > 30 µM (inactive) | > 30 µM (inactive) | > 30 µM (inactive) | > 30 µM (inactive) | > 30 µM (inactive) | > 30 µM (inactive) | Cc1ccc(NC(=O)c2ccc(CN3CC[C@H](N(C)C)C3)c(C(F)(F)F)c2)cc1Nc1nccc(-c2cncnc2)n1 [BAFETINIB]
> 30 µM (inactive) | > 30 µM (inactive) | > 30 µM (inactive) | > 30 µM (inactive) | 0.844 µM (active) | > 30 µM (inactive) | > 30 µM (inactive) | > 30 µM (inactive) | > 30 µM (inactive) | > 30 µM (inactive) | > 30 µM (inactive) | > 30 µM (inactive) | O=C(Nc1ccc(-c2ccnc(Nc3ccc(N4CCOCC4)cc3)n2)cc1)C1CCCN1 (stereo unspecified) [XL-019]
